Measurements taken from patent US20190195897A1, “GLYCOSYLATED METABOLITES” (UNIVERSITEIT LEIDEN, priority 2015, published 2019).

Columns and labels:
GBA2 = target: T1, GBA2 (Mus musculus, UniProt Q69ZF3); experiment: Degradation of GlcChol by GBA2; format: biochemical, murine; conditions: GBA2, input 18 nmol 4MU-β-Glc hydrolysis per ml/h
T1 construct: Myc-His (C); expressed in transfected cells; host or cells: COS-7 cells, used as homogenate/lysate
T1 sequence (Q69ZF3 1-918): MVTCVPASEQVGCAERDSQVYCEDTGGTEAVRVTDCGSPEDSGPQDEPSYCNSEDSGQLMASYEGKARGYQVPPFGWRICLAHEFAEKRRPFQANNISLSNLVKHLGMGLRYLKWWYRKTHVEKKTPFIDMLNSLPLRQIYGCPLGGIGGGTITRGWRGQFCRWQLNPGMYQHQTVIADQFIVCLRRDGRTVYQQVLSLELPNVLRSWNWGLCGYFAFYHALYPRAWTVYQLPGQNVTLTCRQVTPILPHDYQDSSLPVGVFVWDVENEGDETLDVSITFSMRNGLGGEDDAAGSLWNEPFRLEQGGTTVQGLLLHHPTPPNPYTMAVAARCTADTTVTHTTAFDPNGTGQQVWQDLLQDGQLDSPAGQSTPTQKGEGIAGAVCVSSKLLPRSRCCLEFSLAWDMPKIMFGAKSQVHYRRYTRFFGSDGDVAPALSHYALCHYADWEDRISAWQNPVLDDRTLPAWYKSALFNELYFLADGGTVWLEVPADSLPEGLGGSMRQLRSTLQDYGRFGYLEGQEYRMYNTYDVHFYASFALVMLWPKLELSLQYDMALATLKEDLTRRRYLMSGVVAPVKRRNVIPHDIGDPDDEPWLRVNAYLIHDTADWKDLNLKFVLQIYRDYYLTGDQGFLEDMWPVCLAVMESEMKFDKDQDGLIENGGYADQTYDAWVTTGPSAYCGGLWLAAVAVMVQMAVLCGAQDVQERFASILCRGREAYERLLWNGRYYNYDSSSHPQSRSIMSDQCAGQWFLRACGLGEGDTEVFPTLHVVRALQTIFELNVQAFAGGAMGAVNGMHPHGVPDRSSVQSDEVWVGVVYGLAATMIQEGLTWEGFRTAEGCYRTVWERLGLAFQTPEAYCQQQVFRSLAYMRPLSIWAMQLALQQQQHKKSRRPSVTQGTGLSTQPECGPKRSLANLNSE
Excerpt: Both GBA and GBA2, but not GBA3, are able to degrade by hydrolysis as well as synthesize GlcChol at conditions optimal for degradation of 4MU-8-glucoside (FIG. 1D; supplemental Table 1). […] This ability of the several GBA's to hydrolyze as well as synthesize GlcChol was studied in vitro using 25-NBD-cholesterol as acceptor and detection of 25-NBD-glucoside formation by TLC and fluorescence scanning. As source of enzyme rGBA1 was used and GBA2 and GBA3 were individually overexpressed in COST-cells. Overexpression of enzymes was checked by measuring enzymatic activity with appropriate assays and visualization of enzymes with the broad-specificity β-glucopyranosyl cyclophellitolaziridine-type ABP (38). rGBA1 and lysates of GBA2 and GBA3 overexpressing cells were incubated with natural glucosylceramide (C16:0-GloCer or C18:1-GlcCer) as donors and 25-NBD-cholesterol as acceptor. […]
Homogenates of COS-7 cells overexpressing GBA2 and/or GCS, were analyzed for enzymatic activity of GBA2 using artificial 4MU-Glc substrate as earlier described (38). […] The reaction was terminated by addition of 1.25 mL stop-buffer (0.3 M Glycine/NaOH, pH 10.6) and the released 4MU was measured with a LS55 Fluorescence Spectrometer (Perkin-Elmer, Waltham, Mass., USA).

[1] = target: T2, recombinant GBA1 (rGBA1, Cerezyme) (Homo sapiens, UniProt P04062, R534H); experiment: Degradation of GlcChol by rGBA1; format: biochemical
T2 construct: purchased Genzyme (Genzyme Nederland, Naarden, The Netherlands)
T2 sequence (P04062 40-536 R534H): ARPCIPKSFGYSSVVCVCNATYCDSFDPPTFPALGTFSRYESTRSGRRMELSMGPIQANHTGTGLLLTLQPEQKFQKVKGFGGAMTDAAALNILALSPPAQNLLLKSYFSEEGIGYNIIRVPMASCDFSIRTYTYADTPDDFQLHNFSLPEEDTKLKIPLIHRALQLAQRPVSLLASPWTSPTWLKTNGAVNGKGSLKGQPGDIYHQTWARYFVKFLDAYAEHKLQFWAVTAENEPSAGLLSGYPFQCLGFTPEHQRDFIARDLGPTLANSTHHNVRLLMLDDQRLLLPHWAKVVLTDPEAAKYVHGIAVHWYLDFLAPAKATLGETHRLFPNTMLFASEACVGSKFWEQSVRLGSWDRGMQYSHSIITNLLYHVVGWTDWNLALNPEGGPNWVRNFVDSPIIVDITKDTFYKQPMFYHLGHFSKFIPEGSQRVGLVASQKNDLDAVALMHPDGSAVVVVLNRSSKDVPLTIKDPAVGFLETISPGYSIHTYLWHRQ
Method: FIG. 1D: Linearity of GlcChol quantification and its complete digestion with rGBAl. (5 IU) for 60 min at 37 C.
The physiological significance of glucosylation of cholesterol is hypothetically great since it renders the molecule far more water soluble. To establish whether GlcChol physiologically occurs in mammals, firstly a LC-MS/MS procedure was developed for its quantitative detection. For this purpose, a ^13C-isotope labeled cholesterolglucoside was synthesized to be used as internal standard in sensitive quantitative detection of GlcChol by LC-MS/MS. The use of the isotope labeled compound as internal standard avoids the need for corrections for extraction efficiency, chromatographic behavior and ionization efficiency, during quantification GlcChol. […] The limit of detection (LOD) was 0.5 pmol/mL plasma, with a signal to noise ratio of 3 and a limit of quantitation (LOQ) of 0.9 pmol/mL plasma with a signal to noise ratio of 10.
Both GBA and GBA2, but not GBA3, are able to degrade by hydrolysis as well as synthesize GlcChol at conditions optimal for degradation of 4MU-8-glucoside (FIG. 1D; supplemental Table 1). […] This ability of the several GBA's to hydrolyze as well as synthesize GlcChol was studied in vitro using 25-NBD-cholesterol as acceptor and detection of 25-NBD-glucoside formation by TLC and fluorescence scanning. […]

CC(C)CCC[C@@H](C)[C@H]1CC[C@H]2[C@@H]3CC=C4C[C@@H](O[C@@H]5O[C@H](CO)[C@@H](O)[C@H](O)[C@H]5O)CC[C@]4(C)[C@H]3CC[C@]12C [GlcChol, 1-O-cholesteryl-β-D-glucopyranoside]
Percentage digestion GlcChol after 1 h (10 nmole) (GBA2): 83%
substrate for recombinant GBA1 ([1]; even at sub-optimal conditions (absence of Triton-X-100 and sodium taurocholate)): excellent substrate
Percentage digestion GlcChol after 1 h (10 nmole) ([1]; rGBA1, input 15 nmol 4MU-β-Glc hydrolysis per ml/h): 95%
